Laboratory results as given in paper PMC13070491, “Single-nucleus transcriptomics, pharmacokinetics, and pharmacodynamics of CDK4/6 and mTOR inhibition in a Phase 0/1 trial of recurrent high-grade glioma” (Neuro-Oncology, 2025).
Values joined by “and” are separate entries in the source; they are usually repeats but may differ in a detail not shown here. Equal entries are not always repeated.

Experiment: CNS penetration: total and unbound drug concentrations in tumor regions, CSF and plasma (LC-MS/MS, equilibrium dialysis);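 note: drug levels in patient tumor tissue from contrast-enhancing and non-enhancing regions sampled under MRI-guided neuronavigation, with plasma and CSF drawn during surgical resection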
Conditions: for Everolimus.CSF / Everolimus.Enhancing.tumor / Everolimus.Non-enhancing.tumor / Everolimus.Plasma.conc / Everolimus.Unbound.enhancing / Everolimus.Unbound.non-enhancing / Everolimus.Unbound.plasma: per patient
[1] = Level 0: Ribociclib 400mg QD + Everolimus 2.5mg QD, sampling 1-3 Hours
[2] = Level 0: Ribociclib 400mg QD + Everolimus 2.5mg QD, sampling 7-9 Hours
[3] = Level 0: Ribociclib 400mg QD + Everolimus 2.5mg QD, sampling 23-25 Hours
[4] = Level 1: Ribociclib 600mg QD + Everolimus 2.5mg QD, sampling 1-3 Hours
[5] = Level 1: Ribociclib 600mg QD + Everolimus 2.5mg QD, sampling 7-9 Hours
[6] = Level 2: Ribociclib 600mg QD + Everolimus 5mg QD, sampling 7-9 Hours
[7] = Level 3: Ribociclib 600mg QD + Everolimus 10mg QD, sampling 7-9 Hours
[8] = Level 4: Ribociclib 600mg QD + Everolimus 50mg once on Day 5, sampling 7-9 Hours
[9] = Level 5: Ribociclib 600mg QD + Everolimus 60mg once on Day 5, sampling 7-9 Hours

## CO[C@H]1C[C@@H]2CC[C@@H](C)[C@@](O)(O2)C(=O)C(=O)N2CCCC[C@H]2C(=O)O[C@H]([C@H](C)C[C@@H]2CC[C@@H](OCCO)[C@H](OC)C2)CC(=O)[C@H](C)/C=C(\C)[C@@H](O)[C@@H](OC)C(=O)[C@H](C)C[C@H](C)/C=C/C=C/C=C/1C [Everolimus, everolimus]
2.5 mg QD 5 days
  Total everolimus, CSF, MAX: 0.4 nM
  Total everolimus, CSF, MIN: BLQ
  Total everolimus, Enhancing tumor, MIN: BLQ
  Total everolimus, Non-enhancing tumor, MIN: BLQ
5 mg QD 5 days
  Total everolimus, CSF, MAX: BLQ
  Total everolimus, CSF, MED: BLQ
  Total everolimus, CSF, MIN: BLQ
10 mg QD 5 days
  Total everolimus, CSF, MED: 1.4 nM
  Total everolimus, CSF, MIN: BLQ
  Total everolimus, Enhancing tumor, MIN: BLQ
50 mg single dose
  Total everolimus, CSF, MIN: BLQ
  Total everolimus, Non-enhancing tumor, MIN: BLQ
60 mg single dose
  Total everolimus, CSF, MAX: 0.57 nM
  Total everolimus, CSF, MED: 0.57 nM
  Total everolimus, CSF, MIN: BLQ
70 mg single dose
  Total everolimus, CSF, MAX: 11.4 nM
  Total everolimus, CSF, MED: 6.35 nM
  Total everolimus, CSF, MIN: BLQ
[1]
  Everolimus.CSF: BLQ
  Everolimus.Enhancing.tumor: 5.92E-03 and 4.32E-03
  Everolimus.Non-enhancing.tumor: 2.88E-03 and BLQ
  Everolimus.Plasma.conc: 0.02558 and 0.00883
  Everolimus.Unbound.enhancing: BLQ
  Everolimus.Unbound.non-enhancing: BLQ
  Everolimus.Unbound.plasma: BLQ
[2]
  Everolimus.CSF: BLQ
  Everolimus.Enhancing.tumor: BLQ and 1.69E-02
  Everolimus.Non-enhancing.tumor: BLQ and 2.24E-03
  Everolimus.Plasma.conc: 0.00955 and 0.00618
  Everolimus.Unbound.enhancing: BLQ
  Everolimus.Unbound.non-enhancing: BLQ
  Everolimus.Unbound.plasma: BLQ
[3]
  Everolimus.CSF: BLQ
  Everolimus.Enhancing.tumor: BLQ and 4.44E-03
  Everolimus.Non-enhancing.tumor: BLQ and 5.84E-03
  Everolimus.Plasma.conc: 0.00384 and 0.00714
  Everolimus.Unbound.enhancing: BLQ
  Everolimus.Unbound.non-enhancing: BLQ
  Everolimus.Unbound.plasma: BLQ
[4]
  Everolimus.CSF: 3.90E-04
  Everolimus.Enhancing.tumor: 4.40E-03
  Everolimus.Non-enhancing.tumor: 4.72E-03
  Everolimus.Plasma.conc: 0.01738
  Everolimus.Unbound.enhancing: BLQ
  Everolimus.Unbound.non-enhancing: BLQ
  Everolimus.Unbound.plasma: BLQ
[5]
  Everolimus.CSF: 2.70E-04 and 3.30E-04
  Everolimus.Enhancing.tumor: 8.34E-02 and 9.20E-03
  Everolimus.Non-enhancing.tumor: 3.53E-02 and 8.80E-03
  Everolimus.Plasma.conc: 0.03462 and 0.01401
  Everolimus.Unbound.enhancing: BLQ
  Everolimus.Unbound.non-enhancing: BLQ
  Everolimus.Unbound.plasma: BLQ
[6]
  Everolimus.CSF: BLQ
  Everolimus.Enhancing.tumor: 3.98E-02 and 1.11E-02 and 1.66E-02
  Everolimus.Non-enhancing.tumor: 2.02E-02 and 9.20E-03 and 1.03E-02
  Everolimus.Plasma.conc: 0.0225 and 0.0084 and 0.0281
  Everolimus.Unbound.enhancing: BLQ
  Everolimus.Unbound.non-enhancing: BLQ
  Everolimus.Unbound.plasma: BLQ
[7]
  Everolimus.CSF: BLQ and 2.50E-03 and 3.00E-04
  Everolimus.Enhancing.tumor: 6.13E-02 and 2.67E-02 and BLQ
  Everolimus.Non-enhancing.tumor: 3.33E-02 and 4.50E-03 and 5.00E-03
  Everolimus.Plasma.conc: 0.0311 and 0.0616 and 0.0431
  Everolimus.Unbound.enhancing: BLQ
  Everolimus.Unbound.non-enhancing: BLQ
  Everolimus.Unbound.plasma: BLQ
[8]
  Everolimus.CSF: BLQ and 3.70E-04 and 1.50E-03
  Everolimus.Enhancing.tumor: 5.16E-02 and 5.45E-02 and 7.41E-02
  Everolimus.Non-enhancing.tumor: 2.51E-02 and 6.30E-03
  Everolimus.Plasma.conc: 0.07949 and 0.06123 and 0.063
  Everolimus.Unbound.enhancing: BLQ
  Everolimus.Unbound.non-enhancing: BLQ
  Everolimus.Unbound.plasma: 4.59E-04 and 2.99E-04 and 3.00E-04
[9]
  Everolimus.CSF: 5.70E-04 and BLQ
  Everolimus.Enhancing.tumor: 8.76E-02 and 3.04E-02 and 9.84E-03
  Everolimus.Non-enhancing.tumor: 3.61E-02 and 1.38E-02 and 1.13E-02
  Everolimus.Plasma.conc: 0.07053 and 0.09226 and 0.06809
  Everolimus.Unbound.enhancing: BLQ
  Everolimus.Unbound.non-enhancing: BLQ
